ChEMBL document CHEMBL3832761, “MMV Pathogen Box Bioactivity Data” (2017)
Converted amounts (≈) assume the structure as drawn.

Key:
Type in all cases: functional
[1] = tested on: Mycobacterium tuberculosis; assay: AntiMycobacterium tuberculosis activity Non-Replicating form: Average MIC90 (uM)
[2] = tested on: Mycobacterium tuberculosis; assay: AntiMycobacterium tuberculosis activity 1-week GAST/Fe MIC (uM); settings: 168 h
[3] = tested on: Mycobacterium tuberculosis; assay: AntiMycobacterium tuberculosis activity 2-week GAST/Fe MIC (uM); settings: 336 h
[4] = tested on: Mycobacterium tuberculosis; assay: AntiMycobacterium tuberculosis activity 1-week 7H9/ADC/Tw MIC (uM); settings: 168 h
[5] = tested on: Mycobacterium tuberculosis; assay: AntiMycobacterium tuberculosis activity 2-week 7H9/ADC/Tw MIC (uM); settings: 336 h
[6] = tested on: Mycobacterium tuberculosis; assay: AntiMycobacterium tuberculosis activity 2-week Alamar Blue 7H9/ADC/Tw MIC (uM); settings: 336 h
[7] = tested on: Mycobacterium tuberculosis; assay: AntiMycobacterium tuberculosis activity 1-week 7H9/glucose/BSA/Tx MIC (uM); settings: 168 h
[8] = tested on: Mycobacterium tuberculosis; assay: AntiMycobacterium tuberculosis activity 2-week 7H9/glucose/BSA/Tx MIC (uM); settings: 336 h
[9] = tested on: Mycobacterium tuberculosis; assay: AntiMycobacterium tuberculosis activity 1-week 7H9/DPPC/cholesterol/BSA/Tx MIC (uM); settings: 168 h
[10] = tested on: Mycobacterium tuberculosis; assay: AntiMycobacterium tuberculosis activity 2-week 7H9/DPPC/cholesterol/BSA/Tx MIC (uM); settings: 336 h
[11] = tested on: Mycobacterium tuberculosis; assay: AntiMycobacterium tuberculosis activity 1-week 7H9/cholesterol/BSA/Tx MIC (uM); settings: 168 h
[12] = tested on: Mycobacterium tuberculosis; assay: AntiMycobacterium tuberculosis activity 2-week Alamar Blue 7H9/cholesterol/BSA/Tx MIC (uM); settings: 336 h
[13] = tested on: Mycobacterium tuberculosis; assay: (§1) AntiMycobacterium tuberculosis activity day 10 in 7H9/2.5mM butyrate/pH6/0.1mM nitrite MIC90 (uM); settings: 240 h
[14] = tested on: Mycobacterium tuberculosis; assay: AntiMycobacterium tuberculosis activity day 21 in 7H9/2.5mM butyrate/pH6/0.1mM nitrite MIC90 (uM); settings: 504 h
[15] = tested on: Mycobacterium tuberculosis; assay: as §1; settings: 240 h; remark: listed apart in the source
[16] = tested on: Mycobacterium tuberculosis; assay: AntiMycobacterium tuberculosis activity day 21 MIC99 in 7H9/2.5mM butyrate/pH6/0.1mM nitrite MIC99 (uM); settings: 504 h
[17] = tested on: Mycobacterium tuberculosis; assay: AntiMycobacterium tuberculosis activity Replicating form: Average MIC90 (uM)
HepG2 = assay: HepG2 CC50 (uM) Cytotoxicity; settings: Homo sapiens

SMILES	MIC90 [1] [µM]	MIC [2] [µM]	MIC [3] [µM]	MIC [4] [µM]	MIC [5] [µM]	MIC [6] [µM]	MIC [7] [µM]	MIC [8] [µM]	MIC [9] [µM]	MIC [10] [µM]	MIC [11] [µM]	MIC [12] [µM]	MIC90 [13] [µM]	MIC90 [14] [µM]	MIC90 [15] [µM]	MIC [16] [µM]	MIC90 [17] [µM]	CC50 (HepG2) [µM]
CNc1snc(C)c1C(=O)NCCOc1ccc(OC)cc1	19.8 (≈ 6.36 µg/mL)	0.2 (≈ 0.0643 µg/mL)	0.78 (≈ 0.251 µg/mL)	> 50	> 50	12.5 (≈ 4.02 µg/mL)	50 (≈ 16.1 µg/mL)	> 50	19 (≈ 6.11 µg/mL)	50 (≈ 16.1 µg/mL)	3.13 (≈ 1.01 µg/mL)	3.13 (≈ 1.01 µg/mL)	6.25 (≈ 2.01 µg/mL)	50 (≈ 16.1 µg/mL)	6.25 (≈ 2.01 µg/mL)	50 (≈ 16.1 µg/mL)	> 100	> 100
NC(=O)c1cc(-c2ccsc2)ccc1OCCOc1ccccc1	3.96 (≈ 1.34 µg/mL)	0.39 (≈ 0.132 µg/mL)	0.6 (≈ 0.204 µg/mL)	> 50	> 50	19 (≈ 6.45 µg/mL)	> 50	> 50	12.5 (≈ 4.24 µg/mL)	> 50	> 50	6.25 (≈ 2.12 µg/mL)	> 50	> 50	> 50	> 50	> 100	> 100
Cc1cc(NCCc2ccccc2)nc(NC(=N)Nc2ccc(Cl)cc2)n1	2.77 (≈ 1.06 µg/mL)	0.78 (≈ 0.297 µg/mL)	0.78 (≈ 0.297 µg/mL)	1.2 (≈ 0.457 µg/mL)	1.56 (≈ 0.594 µg/mL)	2.3 (≈ 0.876 µg/mL)	1.2 (≈ 0.457 µg/mL)	1.2 (≈ 0.457 µg/mL)	0.6 (≈ 0.229 µg/mL)	0.78 (≈ 0.297 µg/mL)	0.6 (≈ 0.229 µg/mL)	0.78 (≈ 0.297 µg/mL)	3.12 (≈ 1.19 µg/mL)	3.12 (≈ 1.19 µg/mL)	6.25 (≈ 2.38 µg/mL)	3.12 (≈ 1.19 µg/mL)	1.15 (≈ 0.438 µg/mL)	6.5
Cc1nnc(NCc2cccc(Cl)c2)c2ccccc12	4.61 (≈ 1.31 µg/mL)	0.2 (≈ 0.0568 µg/mL)	0.6 (≈ 0.17 µg/mL)	50 (≈ 14.2 µg/mL)	> 50	1.56 (≈ 0.443 µg/mL)	> 50	> 50	≥ 50	> 50	19 (≈ 5.39 µg/mL)	> 50	25 (≈ 7.09 µg/mL)	> 50	> 50	> 50	> 100	76
Cc1nc2ccccn2c1C(=O)NCc1ccc(Cl)cc1	2 (≈ 0.6 µg/mL)	0.05 (≈ 0.015 µg/mL)	0.07 (≈ 0.021 µg/mL)	> 50	> 50	4.7 (≈ 1.41 µg/mL)	25 (≈ 7.49 µg/mL)	> 50	2.3 (≈ 0.689 µg/mL)	25 (≈ 7.49 µg/mL)	9.4 (≈ 2.82 µg/mL)	3.13 (≈ 0.938 µg/mL)	50 (≈ 15 µg/mL)	50 (≈ 15 µg/mL)	> 50	> 50	> 100	> 100
COc1ccc(-c2nc(-c3cccc(NC(=O)Cc4ccc(F)cc4)c3)no2)cc1OC	1.61 (≈ 0.698 µg/mL)	1.56 (≈ 0.676 µg/mL)	1.56 (≈ 0.676 µg/mL)	0.3 (≈ 0.13 µg/mL)	0.39 (≈ 0.169 µg/mL)	0.39 (≈ 0.169 µg/mL)	0.2 (≈ 0.0867 µg/mL)	0.2 (≈ 0.0867 µg/mL)	0.78 (≈ 0.338 µg/mL)	0.78 (≈ 0.338 µg/mL)	0.6 (≈ 0.26 µg/mL)	0.6 (≈ 0.26 µg/mL)	3.12 (≈ 1.35 µg/mL)	6.25 (≈ 2.71 µg/mL)	3.12 (≈ 1.35 µg/mL)	6.25 (≈ 2.71 µg/mL)	0.39 (≈ 0.169 µg/mL)	> 100
O=C(Nc1nnc(-c2ccc(Cl)cc2)o1)c1cccc(C(F)(F)F)c1	2.71 (≈ 0.997 µg/mL)	0.05 (≈ 0.0184 µg/mL)	0.07 (≈ 0.0257 µg/mL)	25 (≈ 9.19 µg/mL)	25 (≈ 9.19 µg/mL)	25 (≈ 9.19 µg/mL)	3.13 (≈ 1.15 µg/mL)	6.25 (≈ 2.3 µg/mL)	4.7 (≈ 1.73 µg/mL)	19 (≈ 6.99 µg/mL)	19 (≈ 6.99 µg/mL)	12.5 (≈ 4.6 µg/mL)	12.5 (≈ 4.6 µg/mL)	12.5 (≈ 4.6 µg/mL)	> 50	50 (≈ 18.4 µg/mL)	27.2 (≈ 10 µg/mL)	9
CCCCOC(=O)Nc1cc2nc(C3CCCCC3)[nH]c2cc1N1CCCC1	97.3 (≈ 37.4 µg/mL)	0.1 (≈ 0.0385 µg/mL)	0.15 (≈ 0.0577 µg/mL)	0.05 (≈ 0.0192 µg/mL)	0.2 (≈ 0.0769 µg/mL)	0.2 (≈ 0.0769 µg/mL)	0.2 (≈ 0.0769 µg/mL)	0.39 (≈ 0.15 µg/mL)	0.15 (≈ 0.0577 µg/mL)	0.2 (≈ 0.0769 µg/mL)	0.1 (≈ 0.0385 µg/mL)	0.2 (≈ 0.0769 µg/mL)	0.39 (≈ 0.15 µg/mL)	0.78 (≈ 0.3 µg/mL)	0.78 (≈ 0.3 µg/mL)	0.78 (≈ 0.3 µg/mL)	0.3 (≈ 0.115 µg/mL)	26.8
